Values after ≈ are worked out from the molar mass of the structure shown. Where a name gives a salt, the structure may show the parent alone.
Key:
[1] = tested on: Proteus mirabilis ATCC 25933; assay: MIC determination by microbroth dilution; format: cell-based; conditions: ATCC25933
M. tuberculosis H37Rv = assay: MIC determination by microbroth dilution, anti-tuberculosis activity; format: cell-based, Mycobacterium tuberculosis; conditions: Mycobacterium tuberculosis, H37RV, 168 h; read-out: MIC
[2] = tested on: Proteus vulgaris ATCC 33420; assay: MIC determination by microbroth dilution; format: cell-based; conditions: ATCC33420
B. anthracis Sterne 34F2 = assay: microbe, parasite or virus in culture; format: cell-based, Bacillus anthracis; conditions: Bacillus anthracis, STERNE34F2, read-out: MIC B. anthracis 34F2
E. coli K12 ΔtolC = assay: microbe, parasite or virus in culture; format: cell-based; conditions: Escherichia coli, read-out: MIC E. coli K12 ΔtolC
E. coli K12 = assay: MIC determination by microbroth dilution; format: cell-based, Escherichia coli; conditions: Escherichia coli, K12
[3] = tested on: Strep. pyogenes ATCC 700294; assay: MIC determination by microbroth dilution; format: cell-based, Streptococcus pyogenes; conditions: Streptococcus pyogenes, ATCC700294, read-out: MIC S. pyogenes
E. faecalis ATCC 33186 = assay: MIC determination by microbroth dilution; format: cell-based, Enterococcus faecalis; conditions: Enterococcus faecalis, ATCC33186
[4] = tested on: S. aureus 8325 or strain ATCC 29213; assay: MIC determination by microbroth dilution; format: cell-based, Staphylococcus aureus; conditions: Staphylococcus aureus, ATCC29213; S. aureus 8325 or strain ATCC 29213 (for 1471-1544)
[5] = tested on: Strenotrophomonas maltophilia ATCC 13637; assay: MIC determination by microbroth dilution; format: cell-based
[6] = tested on: Acinetobacter baumannii ATCC 19606; assay: MIC determination by microbroth dilution; format: cell-based; conditions: ATCC19606
[7] = tested on: Burkholderia cepacia ATCC 25416; assay: MIC determination by microbroth dilution; format: cell-based; conditions: ATCC25416, read-out: MIC B. cepcia
[8] = tested on: Klebsiella pneumoniae ATCC 33495; assay: MIC determination by microbroth dilution; format: cell-based; conditions: ATCC33495
P. aeruginosa PAO1 = assay: MIC determination by microbroth dilution; format: cell-based, Pseudomonas aeruginosa; conditions: Pseudomonas aeruginosa
[9] = tested on: Strep. pneumoniae DAW27 or strain R6; assay: MIC determination by microbroth dilution; format: cell-based, Streptococcus pneumoniae; conditions: Streptococcus pneumoniae; Strep. pneumoniae DAW27 or strain R6 (for 1443-1544); read-out: MIC S. pneumoniae

SMILES | MIC [1] | MIC (M. tuberculosis H37Rv) | MIC [2] | MIC (B. anthracis Sterne 34F2) | MIC (E. coli K12 ΔtolC) | MIC (E. coli K12) | MIC [3] | MIC (E. faecalis ATCC 33186) | MIC [4] | MIC [5] | MIC [6] | MIC [7] | MIC [8] | MIC (P. aeruginosa PAO1) | MIC [9]
CN[C@@H]1[C@H](O)[C@H](NC)C2O[C@]3(O)C(OC2[C@H]1O)O[C@H](C)C[C@H]3NC(=O)Cc1csc(-c2ccccc2)n1 (stereo partly drawn) [Compound 1517, 3′-Dihydro-3′-deoxy-4(R)-(2-phenylthiazol-4-yl)acetylamino spectinomycin trihydrobromide] | > 200 mg/L | 50 mg/L | > 200 mg/L | > 200 mg/L | 200 mg/L | > 200 mg/L | 6.25 mg/L | 100 mg/L | 200 mg/L | > 200 mg/L | > 200 mg/L | > 200 mg/L | > 200 mg/L | > 200 mg/L | 6.25 mg/L
CN[C@@H]1[C@H](O)[C@H](NC)C2O[C@]3(O)C(OC2[C@H]1O)O[C@H](C)C[C@H]3NC(=O)Cc1nccs1 (stereo partly drawn) [Compound 1489, 3′-Dihydro-3′-deoxy-4(R)-(thiazol-2-yl)acetylamino spectinomycin tetradrobromide] | > 200 mg/L | 6.25 mg/L (≈ 13.6 µM) | > 200 mg/L | > 200 mg/L | 50 mg/L (≈ 109 µM) | 200 mg/L (≈ 436 µM) | 12.5 mg/L (≈ 27.3 µM) | 100 mg/L (≈ 218 µM) | 100 mg/L (≈ 218 µM) | > 200 mg/L | > 200 mg/L | > 200 mg/L | > 200 mg/L | > 200 mg/L | 12.5 mg/L (≈ 27.3 µM)
CN[C@@H]1[C@H](O)[C@H](NC)C2O[C@]3(O)C(OC2[C@H]1O)O[C@H](C)C[C@H]3NC(=O)C(c1ccccc1)c1ccccc1 (stereo partly drawn) [Compound 1514, 3′-Dihydro-3′-deoxy-4(R)-(2,2-diphenyl)acetylamino spectinomycin dihydrochloride] | > 200 mg/L | > 200 mg/L | > 200 mg/L | > 200 mg/L | > 200 mg/L | > 200 mg/L | > 200 mg/L | > 200 mg/L | > 200 mg/L | > 200 mg/L | > 200 mg/L | > 200 mg/L | > 200 mg/L | > 200 mg/L | > 200 mg/L
CN[C@@H]1[C@H](O)[C@H](NC)C2O[C@]3(O)C(OC2[C@H]1O)O[C@H](C)C[C@H]3NC(=O)Cc1ccc(Br)cn1 (stereo partly drawn) [Compound 1516, 3′-Dihydro-3′-deoxy-4(R)-(5-bromopyridin-2-yl)acetylamino spectinomycin trihydrobromide] | > 200 mg/L | 1.56 mg/L | > 200 mg/L | > 200 mg/L | 12.5 mg/L | > 200 mg/L | 6.25 mg/L | 100 mg/L | 50 mg/L | > 200 mg/L | > 200 mg/L | > 200 mg/L | > 200 mg/L | > 200 mg/L | 6.25 mg/L
CN[C@@H]1[C@H](O)[C@H](NC)C2O[C@]3(O)C(OC2[C@H]1O)O[C@H](C)C[C@H]3NC(=O)Cc1csc(Nc2cccc(F)c2)n1 (stereo partly drawn) [Compound 1539, 3′-Dihydro-3′-deoxy-4(R)-(2-((3-fluorophenyl)amino)thiazol-4-yl)acetylamino spectinomycin tribromide] | > 200 mg/L | 6.25 mg/L | > 200 mg/L | > 200 mg/L | 12.5 mg/L | > 200 mg/L | 3.1 mg/L | 25 mg/L | 100 mg/L | > 200 mg/L | > 200 mg/L | > 200 mg/L | > 200 mg/L | > 200 mg/L | 3.1 mg/L
CN[C@@H]1[C@H](O)[C@H](NC)C2O[C@]3(O)C(OC2[C@H]1O)O[C@H](C)C[C@H]3NC(=O)[C@H](C)N (stereo partly drawn) [Compound 1467, 3′-Dihydro-3′-deoxy-4(R)-[2(S)-amino]propanoylamino spectinomycin Trihydrochloride] | 200 mg/L | 200 mg/L | > 200 mg/L | > 200 mg/L | 200 mg/L | 200 mg/L | 50 mg/L | > 200 mg/L | > 200 mg/L | 100 mg/L | > 200 mg/L | > 200 mg/L | > 200 mg/L | > 200 mg/L | 50 mg/L

— patent US9284325B2, “Spectinamides as anti-tuberculosis agents” (UNIVERSITY OF TENNESSEE RESEARCH FOUNDATION, priority 2009, dated 2016)
